This is an account of results in US8563551B2, “Method for preventing or treating a disease related to the glucocorticoid receptor” (Santen Pharmaceutical Co., Ltd., priority 2006, dated 2013).

In this test the target is T1, Recombinant human GR (Homo sapiens, UniProt P04150).
T1 construct: purchased Invitrogen P2816
T1 sequence (P04150 1-777): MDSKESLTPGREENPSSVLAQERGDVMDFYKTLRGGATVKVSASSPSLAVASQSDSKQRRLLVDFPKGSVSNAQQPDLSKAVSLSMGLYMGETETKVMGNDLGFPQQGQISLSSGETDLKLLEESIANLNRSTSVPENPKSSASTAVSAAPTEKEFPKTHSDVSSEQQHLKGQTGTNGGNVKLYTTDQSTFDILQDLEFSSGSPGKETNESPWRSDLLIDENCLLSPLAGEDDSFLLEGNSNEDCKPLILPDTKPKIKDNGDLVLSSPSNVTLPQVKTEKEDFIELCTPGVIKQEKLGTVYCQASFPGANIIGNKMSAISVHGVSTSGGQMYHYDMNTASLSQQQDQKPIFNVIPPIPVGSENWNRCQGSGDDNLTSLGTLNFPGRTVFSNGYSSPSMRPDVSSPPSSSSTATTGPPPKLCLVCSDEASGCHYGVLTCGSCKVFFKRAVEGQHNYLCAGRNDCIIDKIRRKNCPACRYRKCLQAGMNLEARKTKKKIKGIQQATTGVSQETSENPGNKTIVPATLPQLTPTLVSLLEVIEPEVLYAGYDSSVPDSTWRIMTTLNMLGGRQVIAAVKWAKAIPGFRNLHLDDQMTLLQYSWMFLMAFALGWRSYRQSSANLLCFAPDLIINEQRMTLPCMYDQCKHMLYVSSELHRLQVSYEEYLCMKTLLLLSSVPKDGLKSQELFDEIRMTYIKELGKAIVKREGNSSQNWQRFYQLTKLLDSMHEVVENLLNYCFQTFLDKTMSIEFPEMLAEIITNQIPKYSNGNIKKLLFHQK
Description: GR competitor assay (receptor competitor assay by fluorescence polarization, Invitrogen kit P2816). Conditions: 20 μM test compound solution (10 μL per well plus 5 μL 4×GS1 and 5 μL 4×GR); relative to 2 mM dexamethasone positive control; ratios of 100% or more are indicated by 100%; read-out: GR Binding ratio (%). As for the experimental part: In order to evaluate a binding activity to GR, a receptor competitor assay was carried out by a fluorescence polarization method. In the assay, a GR competitor assay kit (manufactured by Invitrogen, cat No. P2816) was used, and a procedure was carried out according to the protocol attached to the kit. Hereinafter, the specific method will be described.
GR screening buffer: A buffer containing 10 mM potassium phosphate (pH 7.4), 20 mM sodium molybdate (Na2MoO4), 0.1 mM ethylene diamine tetraacetic acid (EDTA), 5 mM dithiothreitol (DTT), 0.1 mM stabilizing peptide and 2% dimethylsulfoxide was prepared.
4×GS1 solution: Fluormone™ GS1, which is a fluorescent glucocorticoid ligand, was diluted with GR screening buffer, whereby a 4 nM solution was prepared.
4×GR solution: Recombinant human GR was diluted with GR screening buffer, whereby a 16 nM solution was prepared.
After a test compound was dissolved in dimethylsulfoxide, the resulting solution was diluted with GR screening buffer, whereby a 20 μM test compound solution was prepared.
1) The test compound solution was added in an amount of 10 μL into each well of a 384-well plate, and then, 4×GS1 solution and 4×GR solution were added in an amount of 5 μL into each well, respectively.
2) The plate was incubated in a dark place at room temperature for 2 to 4 hours.
3) By using a multimode plate reader, Analyst™ HT (manufactured by LJL Biosystems), fluorescence polarization of each well was measured. As the blank, a well containing GR screening buffer in place of the test compound and 4×GS1 solution was used.
4) The same procedure as that in the above 1) to 3) was carried out except that GR screening buffer was used in place of the test compound solution, and the obtained result was taken as the negative control.
5) The same procedure as that in the above 1) to 3) was carried out except that 2 mM dexamethasone was used in place of the test compound solution, and the obtained result was taken as the positive control.
A GR binding ratio (%) was calculated from the following equation. GR binding ratio(%)=100×[1−(fluorescence polarization of test compound solution−fluorescence polarization of positive control solution)/(fluorescence polarization of negative control solution fluorescence polarization of positive control solution)] (Test Results and Discussion)
In general terms: Fluorescence polarisation rises when a labelled molecule tumbles more slowly, as on binding a larger partner.

Structures are written as SMILES.

As to `COc1cc(OC(=O)c2ccccc2C)ccc1-c1ccc2c(c1COC(=O)c1ccc(C)s1)C(C)=CC(C)(C)N2` [Compound 1-19, 6-[2-Methoxy-4-(2-methylbenzoyloxy)phenyl]-5-(5-methylthiophen-2-ylcarbonyloxymethyl)-2,2,4-trimethyl-1,2-dihydroquinoline], the inhibition at 20 µM (stock) stood at 89%.

For `COc1cc(OC(=O)c2ccc(Cl)cc2)ccc1-c1ccc2c(c1COC(=O)c1ccc(C)s1)C(C)=CC(C)(C)N2` [Compound 1-17, 6-[4-(4-Chlorobenzoyloxy)-2-methoxyphenyl]-5-(5-methylthiophen-2-ylcarbonyloxymethyl)-2,2,4-trimethyl-1,2-dihydroquinoline], the inhibition at 20 µM (stock) turned out to be 84%. The figure for `COc1cc(OC(=O)c2ccncc2)ccc1-c1ccc2c(c1COC(=O)c1ccc(C)s1)C(C)=CC(C)(C)N2` [Compound 1-33, 6-[2-Methoxy-4-(pyridin-4-ylcarbonyloxy)phenyl]-5-(5-methylthiophen-2-ylcarbonyloxymethyl)-2,2,4-trimethyl-1,2-dihydroquinoline] is 96%. The figure for `COc1cc(OC(=O)c2cccc(C)c2)ccc1-c1ccc2c(c1COC(=O)c1ccc(C)s1)C(C)=CC(C)(C)N2` [Compound 1-46, 6-[2-Methoxy-4-(3-methylbenzoyloxy)phenyl]-5-(5-methylthiophen-2-ylcarbonyloxymethyl)-2,2,4-trimethyl-1,2-dihydroquinoline] is 99%; for `CCCS(=O)(=O)Oc1ccc(-c2ccc3c(c2COC(=O)c2ccc(C)s2)C(C)=CC(C)(C)N3)c(OC)c1` [Compound 2-2, 6-(2-Methoxy-4-propylsulfonyloxyphenyl)-5-(5-methylthiophen-2-ylcarbonyloxymethyl)-2,2,4-trimethyl-1,2-dihydroquinoline] it is 99%; for `COc1cc(OC(=O)c2ccccc2OC(C)=O)ccc1-c1ccc2c(c1COC(=O)c1ccc(C)s1)C(C)=CC(C)(C)N2` [Compound 1-44, 6-[4-(2-Acetoxybenzoyloxy)-2-methoxyphenyl]-5-(5-methylthiophen-2-ylcarbonyloxymethyl)-2,2,4-trimethyl-1,2-dihydroquinoline] it is 96%. Regarding `COc1ccccc1C(=O)Oc1ccc(-c2ccc3c(c2COC(=O)c2ccc(C)s2)C(C)=CC(C)(C)N3)c(OC)c1` [Compound 1-12, 6-[2-Methoxy-4-(2-methoxybenzoyloxy)phenyl]-5-(5-methylthiophen-2-ylcarbonyloxymethyl)-2,2,4-trimethyl-1,2-dihydroquinoline], the inhibition at 20 µM (stock) stood at 93%.

For `COc1cc(OC(=O)c2ccsc2)ccc1-c1ccc2c(c1COC(=O)c1ccc(C)s1)C(C)=CC(C)(C)N2` [Compound 1-24, 6-[2-Methoxy-4-(thiophen-3-ylcarbonyloxy)phenyl]-5-(5-methylthiophen-2-ylcarbonyloxymethyl)-2,2,4-trimethyl-1,2-dihydroquinoline], the inhibition at 20 µM (stock) was found to be 94%. The figure for `COc1cc(OC(=O)c2cccnc2C)ccc1-c1ccc2c(c1COC(=O)c1ccc(C)s1)C(C)=CC(C)(C)N2` [Compound 1-30, 6-[2-Methoxy-4-(2-methylpyridin-3-ylcarbonyloxy)phenyl]-5-(5-methylthiophen-2-ylcarbonyloxymethyl)-2,2,4-trimethyl-1,2-dihydroquinoline] is 96%; for `COc1cc(OC(=O)c2cscn2)ccc1-c1ccc2c(c1COC(=O)c1ccc(C)s1)C(C)=CC(C)(C)N2` [Compound 1-32, 6-[2-Methoxy-4-(thiazol-4-ylcarbonyloxy)phenyl]-5-(5-methylthiophen-2-ylcarbonyloxymethyl)-2,2,4-trimethyl-1,2-dihydroquinoline] it is 99%; for `COc1cc(OC(=O)c2ccco2)ccc1-c1ccc2c(c1COC(=O)c1ccc(C)cc1)C(C)=CC(C)(C)N2` [Compound 1-10, 6-[4-(Furan-2-ylcarbonyloxy)-2-methoxyphenyl]-5-(4-methylbenzoyloxymethyl)-2,2,4-trimethyl-1,2-dihydroquinoline] it is 100%. In the case of `COc1cc(OC(=O)c2ccc(F)cc2)ccc1-c1ccc2c(c1COC(=O)c1ccc(C)s1)C(C)=CC(C)(C)N2` [Compound 1-48, 6-[4-(4-Fluorobenzoyloxy)-2-methoxyphenyl]-5-(5-methylthiophen-2-ylcarbonyloxymethyl)-2,2,4-trimethyl-1,2-dihydroquinoline], the inhibition at 20 µM (stock) came to 96%. The figure for `CCS(=O)(=O)Oc1ccc(-c2ccc3c(c2COC(=O)c2ccc(C)s2)C(C)=CC(C)(C)N3)c(OC)c1` [Compound 2-7, 6-(4-Ethylsulfonyloxy-2-methoxyphenyl)-5-(5-methylthiophen-2-ylcarbonyloxymethyl)-2,2,4-trimethyl-1,2-dihydroquinoline] is 100%; for `COc1cc(OC(=O)c2ccc(C)nc2)ccc1-c1ccc2c(c1COC(=O)c1ccc(C)s1)C(C)=CC(C)(C)N2` [Compound 1-2, 6-[2-Methoxy-4-(6-methylpyridin-3-ylcarbonyloxy)phenyl]-5-(5-methylthiophen-2-ylcarbonyloxymethyl)-2,2,4-trimethyl-1,2-dihydroquinoline] it is 93%; for `COc1cc(OC(=O)N2CCOCC2)ccc1-c1ccc2c(c1COC(=O)c1ccc(C)s1)C(C)=CC(C)(C)N2` [Compound 4-3, 6-[2-Methoxy-4-(morpholin-4-ylcarbonyloxy)phenyl]-5-(5-methylthiophen-2-ylcarbonyloxymethyl)-2,2,4-trimethyl-1,2-dihydroquinoline] it is 94%. As to `COc1cc(OS(=O)(=O)C(C)C)ccc1-c1ccc2c(c1COC(=O)c1ccc(C)s1)C(C)=CC(C)(C)N2` [Compound 2-4, 6-(4-Isopropylsulfonyloxy-2-methoxyphenyl)-5-(5-methylthiophen-2-ylcarbonyloxymethyl)-2,2,4-trimethyl-1,2-dihydroquinoline], the inhibition at 20 µM (stock) is 100%. Then `COc1cc(OS(=O)(=O)CCC(F)(F)F)ccc1-c1ccc2c(c1COC(=O)c1ccc(C)s1)C(C)=CC(C)(C)N2` [Compound 2-1, 6-[2-Methoxy-4-(3,3,3-trifluoropropylsulfonyloxy)phenyl]-5-(5-methylthiophen-2-ylcarbonyloxymethyl)-2,2,4-trimethyl-1,2-dihydroquinoline], with 97%. For `COc1cc(OC(=O)c2ccccc2[N+](=O)[O-])ccc1-c1ccc2c(c1COC(=O)c1ccc(C)s1)C(C)=CC(C)(C)N2` [Compound 1-49, 6-[2-Methoxy-4-(2-nitrobenzoyloxy)phenyl]-5-(5-methylthiophen-2-ylcarbonyloxymethyl)-2,2,4-trimethyl-1,2-dihydroquinoline], the inhibition at 20 µM (stock) came to 98%. `COc1cc(OC(=O)c2cccnc2)ccc1-c1ccc2c(c1COC(=O)c1ccc(Br)s1)C(C)=CC(C)(C)N2` [Compound 1-37, 5-(5-Bromothiophen-2-ylcarbonyloxymethyl)-6-[2-methoxy-4-(pyridin-3-ylcarbonyloxy)phenyl]-2,2,4-trimethyl-1,2-dihydroquinoline]: the inhibition at 20 µM (stock) worked out at 100%. The figure for `COc1cc(OC(=O)c2ccoc2)ccc1-c1ccc2c(c1COC(=O)c1ccc(C)s1)C(C)=CC(C)(C)N2` [Compound 1-25, 6-[4-(Furan-3-ylcarbonyloxy)-2-methoxyphenyl]-5-(5-methylthiophen-2-ylcarbonyloxymethyl)-2,2,4-trimethyl-1,2-dihydroquinoline] is 94%.
